Experimental data from the supplement of paper PMC10307832.

Key:
Experiment in all cases: relative viability (nuclei count vs DMSO), 5 days (fraction); higher = more cells survive
AZ628 + Crizotinib = compound: CC1=C(C=C(C=C1)NC(=O)C2=CC(=CC=C2)C(C)(C)C#N)NC3=CC4=C(C=C3)N=CN(C4=O)C [AZ628] + C[C@@H](Oc1cc(-c2cnn(C3CCNCC3)c2)cnc1N)c1c(Cl)ccc(F)c1Cl [Crizotinib] (partner 1 µM)
How it was run: (§1)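 Medians of duplicate plates are given as relative viability. That measure is the nuclei count in treated wells divided by the count in vehicle wells. Counts were taken on 4× images of lung cancer cell lines in 1536-well plates, 5 days after pin-tool dosing the day after seeding with one drug alone or a fixed anchor-drug dose plus five library-drug doses (not always all listed) in √10 steps.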

AZ628 + Decitabine = compound: CC1=C(C=C(C=C1)NC(=O)C2=CC(=CC=C2)C(C)(C)C#N)NC3=CC4=C(C=C3)N=CN(C4=O)C [AZ628] + Nc1ncn([C@H]2C[C@H](O)[C@@H](CO)O2)c(=O)n1 [Decitabine] (partner 2 µM)
How it was run: as §1

AZ628 + Vorinostat = compound: CC1=C(C=C(C=C1)NC(=O)C2=CC(=CC=C2)C(C)(C)C#N)NC3=CC4=C(C=C3)N=CN(C4=O)C [AZ628] + O=C(CCCCCCC(=O)Nc1ccccc1)NO [Vorinostat] (partner 1 µM)
How it was run: as §1

[1] = compound: C[As](C)SC[C@H](NC(=O)CC[C@H](N)C(=O)O)C(=O)NCC(=O)O [Darinaparsin] + O=C(CCCCCCC(=O)Nc1ccccc1)NO [Vorinostat] (partner 1 µM)
How it was run: as §1

| Cell Line | relative viability (AZ628 + Crizotinib; first compound 0.08 µM) | relative viability (AZ628 + Crizotinib; first compound 0.253 µM) | relative viability (AZ628 + Crizotinib; first compound 0.8 µM) | relative viability (AZ628 + Crizotinib; first compound 2.53 µM) | relative viability (AZ628 + Crizotinib; first compound 8 µM) | relative viability (AZ628 + Decitabine; first compound 0.08 µM) | relative viability (AZ628 + Decitabine; first compound 0.253 µM) | relative viability (AZ628 + Decitabine; first compound 0.8 µM) | relative viability (AZ628 + Decitabine; first compound 2.53 µM) | relative viability (AZ628 + Decitabine; first compound 8 µM) | relative viability (AZ628 + Vorinostat; first compound 0.08 µM) | relative viability (AZ628 + Vorinostat; first compound 0.253 µM) | relative viability (AZ628 + Vorinostat; first compound 0.8 µM) | relative viability (AZ628 + Vorinostat; first compound 2.53 µM) | relative viability (AZ628 + Vorinostat; first compound 8 µM) | relative viability ([1]; first compound 0.08 µM) | relative viability ([1]; first compound 0.8 µM) | relative viability ([1]; first compound 2.53 µM) | relative viability ([1]; first compound 8 µM) |
| --- | --- | --- | --- | --- | --- | --- | --- | --- | --- | --- | --- | --- | --- | --- | --- | --- | --- | --- | --- |
| NCI-H1437 | 0.869 | 0.822 | 0.899 | 0.995 | 0.932 | 0.606 | 0.548 | 0.531 | 0.613 | 0.659 | 0.834 | 0.765 | 0.752 | 0.829 | 0.776 | 0.907 | 0.854 | 0.911 | 1.06 |
| NCI-H460 | 1.03 | 0.92 | 0.872 | 0.7 | 0.38 | 0.512 | 0.456 | 0.38 | 0.532 | 0.165 | 0.728 | 0.715 | 0.644 | 0.641 | 0.24 | 1.35 | 0.831 | 0.569 | 1 |
| HARA | 0.904 | 1.05 | 0.951 | 0.82 | 0.476 | 0.414 | 0.441 | 0.461 | 0.448 | 0.289 | 0.706 | 0.453 | 0.405 | 0.399 | 0.183 | 0.582 | 0.532 | 0.575 | 0.621 |
| NCI-H2085 | 0.84 | 0.928 | 0.912 | 0.911 | 0.69 | 0.534 | 0.563 | 0.569 | 0.575 | 0.609 | 0.845 | 0.788 | 0.891 | 0.826 | 0.736 | 0.73 | 0.732 | 0.827 | 0.764 |
| RERF-LC-KJ | 0.779 | 0.817 | 0.868 | 0.85 | 0.726 | 0.698 | 0.708 | 0.644 | 0.647 | 0.688 | 0.779 | 0.735 | 0.741 | 0.677 | 0.656 | 0.686 | 0.742 | 0.563 | 0.723 |
| HCC-78 | 0.404 | 0.403 | 0.38 | 0.413 | 0.4 | 0.734 | 0.629 | 0.771 | 0.787 | 0.848 | 0.523 | 0.439 | 0.465 | 0.565 | 0.457 | 0.487 | 0.422 | 0.465 | 0.43 |
| NCI-H2087 | 0.926 | 1.04 | 1.03 | 0.926 | 0.362 | 0.267 | 0.153 | 0.184 | 0.137 | 0.146 | 1.02 | 0.723 | 0.743 | 0.527 | 0.148 | 0.932 | 0.839 | 0.892 | 1.14 |
| SK-LU-1 | 0.699 | 0.874 | 0.778 | 0.792 | 0.885 | 0.549 | 0.55 | 0.505 | 0.577 | 0.391 | 0.595 | 0.896 | 0.726 | 0.758 | 0.611 | 0.742 | 0.784 | 0.591 | 0.702 |
